Measured values taken from the supplement of paper PMC8253809.

What was measured:
[1] = test system: DIPGX9 (diffuse intrinsic pontine glioma line); assay: maximal growth inhibition (yFin) relative to DMSO / staurosporine; higher = more efficacious
Outline: (§1)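 Patient-derived pHGG/DIPG cell lines and astrocyte controls were grown on 1% Geltrex-coated 384-well plates and exposed by pin tool to a 10-point threefold dilution series (mean top concentration 35 μM), in triplicate. Exposure was 7 days (iAstro 3 days) at 37 °C, 5% CO2. CellTiter-Glo luminescence was log2-transformed, normalised per plate to % activity between negative (solvent) and positive control wells, and pooled. EC50 and maximal response (yFin) come from the lowest-AICc three- or four-parameter log-logistic fit.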

[2] = test system: SUDIPGXVII (diffuse intrinsic pontine glioma line); assay: as above
Outline: as §1

[3] = test system: HGGX42 (H3.3 G34R paediatric high-grade glioma line); assay: as above
Outline: as §1

[4] = test system: SUDIPGIV (diffuse intrinsic pontine glioma line); assay: as above
Outline: as §1

[5] = test system: HABS (astrocyte control); assay: as above
Outline: as §1

[6] = test system: DIPGX37 (H3.3 K27M diffuse intrinsic pontine glioma line); assay: as above
Outline: as §1

[7] = test system: SUDIPGXXI (diffuse intrinsic pontine glioma line); assay: as above
Outline: as §1

[8] = test system: DIPGX7 (H3.3 K27M diffuse intrinsic pontine glioma line); assay: as above
Outline: as §1

[9] = test system: HGGX2 (paediatric high-grade glioma line); assay: as above
Outline: as §1

[10] = test system: SUDIPGXIX (diffuse intrinsic pontine glioma line); assay: as above
Outline: as §1

[11] = test system: HGGX39 (paediatric high-grade glioma line); assay: as above
Outline: as §1

[12] = test system: HGGX6 (H3.3 G34R paediatric high-grade glioma line); assay: as above
Outline: as §1

[13] = test system: iAstro (astrocyte control); assay: as above
Outline: as §1

[14] = test system: SUDIPGXIII (diffuse intrinsic pontine glioma line); assay: as above
Outline: as §1

[15] = test system: SUDIPGVI (diffuse intrinsic pontine glioma line); assay: as above
Outline: as §1

[16] = test system: DIPGX29 (H3.3 K27M diffuse intrinsic pontine glioma line); assay: as above
Outline: as §1

[17] = test system: DIPGX9; assay: area under dose-response curve of % growth inhibition (log2 RLU vs DMSO / staurosporine), 1e-11 to 1e-4 M (% x log10 M); higher = more growth inhibition
Outline: (§2)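 On 1% Geltrex-coated 384-well plates, patient-derived pHGG/DIPG cell lines and astrocytes were treated in triplicate across 10 threefold dilutions (mean top concentration 35 μM) for 7 days, with iAstro treated for 3 days, at 37 °C, 5% CO2. Log2-transformed CellTiter-Glo luminescence was normalised per plate to % activity between solvent and positive controls. Area under the curve was obtained by the trapezoid rule from a log-logistic fit, or from a smoothing spline when that fit failed.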

[18] = test system: SUDIPGXVII; assay: as above
Outline: as §2

[19] = test system: HGGX42; assay: as above
Outline: as §2

[20] = test system: SUDIPGIV; assay: as above
Outline: as §2

[21] = test system: HABS; assay: as above
Outline: as §2

[22] = test system: DIPGX37; assay: as above
Outline: as §2

[23] = test system: SUDIPGXXI; assay: as above
Outline: as §2

[24] = test system: DIPGX7; assay: as above
Outline: as §2

[25] = test system: HGGX2; assay: as above
Outline: as §2

[26] = test system: SUDIPGXIX; assay: as above
Outline: as §2

[27] = test system: HGGX39; assay: as above
Outline: as §2

[28] = test system: HGGX6; assay: as above
Outline: as §2

[29] = test system: iAstro; assay: as above
Outline: as §2

[30] = test system: SUDIPGXIII; assay: as above
Outline: as §2

| Structure (SMILES) | maximal growth inhibition [1] | maximal growth inhibition [2] | maximal growth inhibition [3] | maximal growth inhibition [4] | maximal growth inhibition [5] | maximal growth inhibition [6] | maximal growth inhibition [7] | maximal growth inhibition [8] | maximal growth inhibition [9] | maximal growth inhibition [10] | maximal growth inhibition [11] | maximal growth inhibition [12] | maximal growth inhibition [13] | maximal growth inhibition [14] | maximal growth inhibition [15] | maximal growth inhibition [16] | area under dose-response curve [17] | area under dose-response curve [18] | area under dose-response curve [19] | area under dose-response curve [20] | area under dose-response curve [21] | area under dose-response curve [22] | area under dose-response curve [23] | area under dose-response curve [24] | area under dose-response curve [25] | area under dose-response curve [26] | area under dose-response curve [27] | area under dose-response curve [28] | area under dose-response curve [29] | area under dose-response curve [30] |
| --- | --- | --- | --- | --- | --- | --- | --- | --- | --- | --- | --- | --- | --- | --- | --- | --- | --- | --- | --- | --- | --- | --- | --- | --- | --- | --- | --- | --- | --- | --- |
| CC(C)c1cc(C(=O)N2Cc3ccc(CN4CCN(C)CC4)cc3C2)c(O)cc1O | 94.9% | 67.2% | 65% | 56.5% | 108% | 92.6% | 105% | 78.3% | 54.4% | 77.2% | 105% | 34.9% | 31.4% | 51.9% | 51.6% | 105% | 281 | 164 | 131 | 152 | 215 | 264 | 256 | 125 | 145 | 230 | 218 | 92.3 | 88 | 111 |
| O=C(Nc1ccc([N+](=O)[O-])cc1Cl)c1cc(Cl)ccc1O [NICOLSAMIDE] | 94% | 88.7% | 87.9% | 92.4% | 82.4% | 81.9% | 110% | 86% | 93.8% | 89% | 96.9% | 71.9% | 34.7% | 84.2% | 74.1% | 78.2% | 150 | 141 | 129 | 146 | 116 | 142 | 232 | 153 | 119 | 142 | 115 | 85.2 | 49.6 | 167 |
| C[C@@H]1O[C@@H](O[C@H]2C[C@@H](O)[C@]3(CO)[C@H]4[C@H](O)C[C@]5(C)[C@@H](C6=CC(=O)OC6)CC[C@]5(O)[C@@H]4CC[C@]3(O)C2)[C@H](O)[C@H](O)[C@H]1O [OUABAIN] | 70.1% | 73.5% | 53.3% | 103% | 69.1% | 46.7% | 90.6% | 100% | 63.9% | 83.6% | 75.1% | 64.9% | 47.1% | 46.9% | 60.1% | 53.4% | 168 | 186 | 127 | 284 | 133 | 126 | 251 | 279 | 173 | 202 | 218 | 173 | 135 | 107 |
| Cc1ccc(C(=O)Nc2ccc(CN3CCN(C)CC3)c(C(F)(F)F)c2)cc1C#Cc1cnc2cccnn12 [PONATINIB] | 94.2% | 101% | 99% | 100% | 103% | 101% | 97.2% | 101% | 99.6% | 99.8% | 99.3% | 97.4% | 95% | 96% | 97.8% | 104% | 252 | 125 | 164 | 102 | 194 | 141 | 345 | 155 | 163 | 132 | 148 | 155 | 128 | 132 |
| CC(=O)c1cc([N+](=O)[O-])c(Sc2ccc(F)cc2F)s1 | 109% | 74.3% | 108% | 104% | 37.7% | 112% | 113% | 117% | 106% | 118% | 24.6% | 104% | 89.1% | 104% | 94.1% | 115% | 92.8 | 55.7 | 84 | 91.3 | 26.4 | 88.6 | 87.4 | 94.3 | 78.5 | 91.8 | 19.5 | 67.9 | 75.5 | 74.4 |
| NC1CCC(Nc2cc(-c3cccc(NCc4cccc(F)c4)n3)c(Cl)cn2)CC1 (stereo not given) [CDK9-IN-2] | 88.7% | 87% | 76.7% | 88.1% | 98.5% | 77.5% | 95.9% | 90.4% | 95.4% | 86.9% | 99.7% | 67.1% | 85.7% | 94.9% | 71.3% | 71.8% | 278 | 232 | 230 | 243 | 180 | 214 | 326 | 249 | 181 | 254 | 172 | 199 | 135 | 167 |
| CCNC(=O)c1noc(-c2cc(C(C)C)c(O)cc2O)c1-c1ccc(CN2CCOCC2)cc1 [NVP-AUY922] | 84.4% | 63.9% | 34.4% | 55.9% | 86.9% | 82.2% | 115% | 48.5% | 49.9% | 76.3% | 80.3% | 29.6% | 51% | 61.3% | 35.2% | 80.4% | 294 | 218 | 147 | 183 | 285 | 285 | 318 | 94.5 | 180 | 274 | 275 | 99.4 | 118 | 213 |
| O=C(c1ccccc1)c1ccc2nc(NC(=O)c3csc(C4CCN(c5ncnc6ccsc56)CC4)n3)[nH]c2c1 | 44.1% | 28.2% | 48.7% | 27.7% | 35.8% | 38.4% | 111% | 89.8% | 51.9% | 112% | 29.6% | 36% | 64.8% | 50.1% | 45.9% | 62.1% | 62.6 | 68.3 | 72.8 | 51.4 | 42.1 | 89.1 | 147 | 135 | 83.7 | 118 | 55.4 | 55.8 | 88.4 | 114 |
| O=C(Nc1ccccc1-c1cn2c(CN3CCNCC3)csc2n1)c1cnc2ccccc2n1 [SRT1720] | 103% | 99.2% | 102% | 104% | 98.3% | 94.6% | 105% | 102% | 99.1% | 104% | 95.5% | 90.5% | 91.6% | 94.6% | 93.9% | 94.6% | 146 | 96.6 | 152 | 146 | 91.1 | 113 | 178 | 143 | 158 | 139 | 103 | 102 | 131 | 122 |
| O=C(c1ccc(Nc2nccc(-c3cc4ccccc4s3)n2)cc1)N1CCC(N2CCCC2)CC1 [IKK 16] | 122% | 118% | 107% | 115% | 124% | 120% | 120% | 108% | 104% | 128% | 119% | 106% | 94.4% | 114% | 104% | 117% | 105 | 108 | 187 | 132 | 93.1 | 183 | 165 | 155 | 146 | 127 | 137 | 88.2 | 110 | 107 |
| CCCCc1oc2ccc(NS(C)(=O)=O)cc2c1C(=O)c1ccc(OCCCN(CCCC)CCCC)cc1 [DRONEDARONE] | 123% | 122% | 119% | 122% | 119% | 99.7% | 127% | 120% | 116% | 123% | 106% | 93.4% | 104% | 117% | 121% | 104% | 128 | 119 | 165 | 149 | 91.3 | 138 | 225 | 194 | 136 | 137 | 108 | 106 | 134 | 105 |
| CC(C)(C)c1cnc(CSc2cnc(NC(=O)C3CCNCC3)s2)o1 | 104% | 95.8% | 87.2% | 103% | 45.9% | 86.8% | 110% | 113% | 57% | 116% | 84.8% | 83.9% | 27.2% | 92.1% | 82.8% | 84% | 281 | 199 | 216 | 221 | 121 | 192 | 320 | 208 | 130 | 245 | 171 | 151 | 55.9 | 176 |
